Laboratory results taken from patent US20240252529A1, “ANTIVIRAL PHARMACEUTICAL COMPOSITION” (MARINOMED BIOTECH AG, priority 2020, published 2024).

System: SARS-CoV-2 spike glycoprotein pseudotyped lentivirus
Type: cell-based
Details: comparative polymers at 100 μg/ml; FIG. 3

O=C[C@H](O)[C@@H](O)[C@@H](OS(=O)(=O)O)[C@H](O)CO [Gal-4-SO4, galactose-4-sulphate]
protection of target cells against infection: only poorly effective
